Test system: 777334-354-R2-J4-PDC tumor spheroids with HUVEC/MSC, viability
Assay: Anticancer human tumor 777334-354-R2-J4-PDC patient-derived pancreatic adenocarcinoma cell line growth inhibition [GQUAD]
Details: for IC50: curve of first compound; for viability, T/C: stronger effect = lower value
In short: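 Multi-cell-type spheroids of tumor cells with HUVEC and mesenchymal stem cells, treated with drug combinations. Concentrations descend in half-log steps from near clinical Cmax, or from 10 microM where Cmax is unknown; viability read-out.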

[1] = second compound 0.0316 µM, first compound 0.0316 µM
[2] = second compound 0.0316 µM, first compound 0.316 µM
[3] = second compound 0.1 µM, first compound 0.0316 µM
[4] = second compound 0.1 µM, first compound 0.316 µM
[5] = second compound 0.316 µM, first compound 0.0316 µM
[6] = second compound 0.316 µM, first compound 0.316 µM
[7] = second compound 1 µM, first compound 0.0316 µM
[8] = second compound 1 µM, first compound 0.316 µM
[9] = second compound 3.16 µM, first compound 0.0316 µM
[10] = second compound 3.16 µM, first compound 0.316 µM
[11] = second compound 10 µM, first compound 0.0316 µM
[12] = second compound 10 µM, first compound 0.316 µM
[13] = second compound 0.0316 µM, first compound 0.1 µM
[14] = second compound 0.0316 µM, first compound 1 µM
[15] = second compound 0.0316 µM, first compound 3.16 µM
[16] = second compound 0.0316 µM, first compound 10 µM
[17] = second compound 0.1 µM, first compound 0.1 µM
[18] = second compound 0.1 µM, first compound 1 µM
[19] = second compound 0.1 µM, first compound 3.16 µM
[20] = second compound 0.1 µM, first compound 10 µM
[21] = second compound 0.316 µM, first compound 0.1 µM
[22] = second compound 0.316 µM, first compound 1 µM
[23] = second compound 0.316 µM, first compound 3.16 µM
[24] = second compound 0.316 µM, first compound 10 µM
[25] = second compound 1 µM, first compound 0.1 µM
[26] = second compound 1 µM, first compound 1 µM
[27] = second compound 1 µM, first compound 3.16 µM
[28] = second compound 1 µM, first compound 10 µM
[29] = second compound 3.16 µM, first compound 0.1 µM
[30] = second compound 3.16 µM, first compound 1 µM
[31] = second compound 3.16 µM, first compound 3.16 µM
[32] = second compound 3.16 µM, first compound 10 µM
[33] = second compound 10 µM, first compound 0.1 µM
[34] = second compound 10 µM, first compound 1 µM
[35] = second compound 10 µM, first compound 3.16 µM
[36] = second compound 10 µM, first compound 10 µM
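Further: spheroids exposed to compounds for 7 days before readout.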

With `Cc1[nH]c2ccccc2c1CCNCc1ccc(/C=C/C(=O)NO)cc1` + Cc1[nH]c2ccc(F)cc2c1-c1nc2c3cccnc3c3ncccc3c2[nH]1 the IC50 (second compound 0.0316 µM) was 189 nM, the IC50 (second compound 0.1 µM) was 215 nM and the IC50 (second compound 0.316 µM) was 207 nM. It also gave an IC50 (second compound 1 µM) of 176 nM, an IC50 (second compound 3.16 µM) of under 0.999 nM and an IC50 (second compound 10 µM) of under 0.999 nM. For the same compound, the viability, T/C (second compound 0.0316 µM, first compound 0.000999 µM) was 114%, the viability, T/C (second compound 0.0316 µM, first compound 0.00316 µM) was 91.3% and the viability, T/C (second compound 0.0316 µM, first compound 0.00999 µM) was 103%. The viability, T/C [1] was 78.2%, the viability, T/C (second compound 0.0316 µM, first compound 0.0999 µM) was 74.5% and the viability, T/C [2] was 33.8%. It also gave a viability, T/C (second compound 0.1 µM, first compound 0.000999 µM) of 103%, a viability, T/C (second compound 0.1 µM, first compound 0.00316 µM) of 94% and a viability, T/C (second compound 0.1 µM, first compound 0.00999 µM) of 102%. The viability, T/C [3] was 90.6%, the viability, T/C (second compound 0.1 µM, first compound 0.0999 µM) was 73.1% and the viability, T/C [4] was 38.5%. The viability, T/C (second compound 0.316 µM, first compound 0.000999 µM) was 90.2%, the viability, T/C (second compound 0.316 µM, first compound 0.00316 µM) was 92.2% and the viability, T/C (second compound 0.316 µM, first compound 0.00999 µM) was 109%. The viability, T/C [5] was 92.7%, the viability, T/C (second compound 0.316 µM, first compound 0.0999 µM) was 79% and the viability, T/C [6] was 33.1%. For the same compound, the viability, T/C (second compound 1 µM, first compound 0.000999 µM) was 97.9%, the viability, T/C (second compound 1 µM, first compound 0.00316 µM) was 80.3% and the viability, T/C (second compound 1 µM, first compound 0.00999 µM) was 78.4%. It also gave a viability, T/C [7] of 91.2%, a viability, T/C (second compound 1 µM, first compound 0.0999 µM) of 70.4% and a viability, T/C [8] of 29.2%. It also gave a viability, T/C (second compound 3.16 µM, first compound 0.000999 µM) of 46%, a viability, T/C (second compound 3.16 µM, first compound 0.00316 µM) of 37.7% and a viability, T/C (second compound 3.16 µM, first compound 0.00999 µM) of 41%. For the same compound, the viability, T/C [9] was 49.3%, the viability, T/C (second compound 3.16 µM, first compound 0.0999 µM) was 52.5% and the viability, T/C [10] was 38.7%. For the same compound, the viability, T/C (second compound 10 µM, first compound 0.000999 µM) was 46.3%, the viability, T/C (second compound 10 µM, first compound 0.00316 µM) was 24.8% and the viability, T/C (second compound 10 µM, first compound 0.00999 µM) was 38.9%. The viability, T/C [11] was 35%, the viability, T/C (second compound 10 µM, first compound 0.0999 µM) was 41.6% and the viability, T/C [12] was 32.1%.

`O=C(NO)c1cnc(N2CCN(S(=O)(=O)c3ccc4ccccc4c3)CC2)nc1` + Cc1[nH]c2ccc(F)cc2c1-c1nc2c3cccnc3c3ncccc3c2[nH]1 gave an IC50 (second compound 0.0316 µM) of 1440 nM, an IC50 (second compound 0.1 µM) of 1390 nM and an IC50 (second compound 0.316 µM) of 1520 nM. It also gave an IC50 (second compound 1 µM) of 1580 nM, an IC50 (second compound 3.16 µM) of 1050 nM and an IC50 (second compound 10 µM) of under 31.6 nM. For the same compound, the viability, T/C [1] was 104%, the viability, T/C [13] was 91.6% and the viability, T/C [2] was 87.3%. The viability, T/C [14] was 68.3%, the viability, T/C [15] was 12.7% and the viability, T/C [16] was 2.55%. The viability, T/C [3] was 92.7%, the viability, T/C [17] was 101% and the viability, T/C [4] was 91.6%. It also gave a viability, T/C [18] of 64.6%, a viability, T/C [19] of 13.6% and a viability, T/C [20] of 0.23%. For the same compound, the viability, T/C [5] was 99.2%, the viability, T/C [21] was 92.9% and the viability, T/C [6] was 86.2%. For the same compound, the viability, T/C [22] was 67.1%, the viability, T/C [23] was 22% and the viability, T/C [24] was 2.6%. For the same compound, the viability, T/C [7] was 88.4%, the viability, T/C [25] was 84.6% and the viability, T/C [8] was 71.8%. It also gave a viability, T/C [26] of 70.1%, a viability, T/C [27] of 22.5% and a viability, T/C [28] of 2.98%. The viability, T/C [9] was 55.7%, the viability, T/C [29] was 41.7% and the viability, T/C [10] was 67%. For the same compound, the viability, T/C [30] was 50.5%, the viability, T/C [31] was 17.5% and the viability, T/C [32] was 0.99%. It also gave a viability, T/C [11] of 38.4%, a viability, T/C [33] of 38.7% and a viability, T/C [12] of 52.4%. For the same compound, the viability, T/C [34] was 41.9%, the viability, T/C [35] was 19.7% and the viability, T/C [36] was 2.58%.

For `O=c1[nH]cc(F)c(=O)[nH]1` + Cc1[nH]c2ccc(F)cc2c1-c1nc2c3cccnc3c3ncccc3c2[nH]1, the IC50 (second compound 0.0316 µM) was over 10000 nM, the IC50 (second compound 0.1 µM) was over 10000 nM and the IC50 (second compound 0.316 µM) was over 10000 nM. It also gave an IC50 (second compound 1 µM) of over 10000 nM, an IC50 (second compound 3.16 µM) of under 31.6 nM and an IC50 (second compound 10 µM) of under 31.6 nM. For the same compound, the viability, T/C [1] was 95.5%, the viability, T/C [13] was 93.3% and the viability, T/C [2] was 105%. It also gave a viability, T/C [14] of 82.5%, a viability, T/C [15] of 71.3% and a viability, T/C [16] of 61.5%. The viability, T/C [3] was 113%, the viability, T/C [17] was 100% and the viability, T/C [4] was 103%. The viability, T/C [18] was 72%, the viability, T/C [19] was 80.8% and the viability, T/C [20] was 61.7%. The viability, T/C [5] was 89.1%, the viability, T/C [21] was 103% and the viability, T/C [6] was 86.1%. For the same compound, the viability, T/C [22] was 76.8%, the viability, T/C [23] was 79.4% and the viability, T/C [24] was 67.5%. For the same compound, the viability, T/C [7] was 74.7%, the viability, T/C [25] was 89.5% and the viability, T/C [8] was 72.9%. The viability, T/C [26] was 61.1%, the viability, T/C [27] was 68.7% and the viability, T/C [28] was 53.3%. The viability, T/C [9] was 44.6%, the viability, T/C [29] was 38.4% and the viability, T/C [10] was 31.2%. For the same compound, the viability, T/C [30] was 28.8%, the viability, T/C [31] was 27.7% and the viability, T/C [32] was 25%. It also gave a viability, T/C [11] of 29.6%, a viability, T/C [33] of 29.1% and a viability, T/C [12] of 24.5%. It also gave a viability, T/C [34] of 17.4%, a viability, T/C [35] of 16.4% and a viability, T/C [36] of 18.5%.

Work on `COc1ccc([C@@H](O)c2cc(-c3ncnc4cc(N5CCOCC5)ccc34)c(F)cc2Cl)nn1` + Cc1cnc(CNC(=O)c2c(=O)c3ccc(N4CCCN(C)CC4)nc3n3c2sc2ccccc23)cn1 yielded an IC50 (second compound 0.0316 µM) of 2990 nM, an IC50 (second compound 0.1 µM) of 1610 nM and an IC50 (second compound 0.316 µM) of 2100 nM. The IC50 (second compound 1 µM) was 1490 nM, the IC50 (second compound 3.16 µM) was 955 nM and the IC50 (second compound 10 µM) was 662 nM. It also gave a viability, T/C [1] of 101%, a viability, T/C [13] of 94.4% and a viability, T/C [2] of 101%. It also gave a viability, T/C [14] of 72.1%, a viability, T/C [15] of 51% and a viability, T/C [16] of 24.6%. It also gave a viability, T/C [3] of 102%, a viability, T/C [17] of 84.4% and a viability, T/C [4] of 69.9%. It also gave a viability, T/C [18] of 57.9%, a viability, T/C [19] of 42.8% and a viability, T/C [20] of 23.2%. The viability, T/C [5] was 93.9%, the viability, T/C [21] was 89.3% and the viability, T/C [6] was 75.8%. The viability, T/C [22] was 64.8%, the viability, T/C [23] was 42% and the viability, T/C [24] was 20.1%. For the same compound, the viability, T/C [7] was 76.2%, the viability, T/C [25] was 84.1% and the viability, T/C [8] was 69.5%. It also gave a viability, T/C [26] of 57.7%, a viability, T/C [27] of 36.3% and a viability, T/C [28] of 19.2%. It also gave a viability, T/C [9] of 61.1%, a viability, T/C [29] of 64.9% and a viability, T/C [10] of 63.1%. For the same compound, the viability, T/C [30] was 45.6%, the viability, T/C [31] was 34.9% and the viability, T/C [32] was 17.1%. It also gave a viability, T/C [11] of 58.4%, a viability, T/C [33] of 61% and a viability, T/C [12] of 52.5%. It also gave a viability, T/C [34] of 48.5%, a viability, T/C [35] of 28.6% and a viability, T/C [36] of 15.6%.

— PubChem BioAssay AID2060499 (Molecular Pharmacology Branch, DTP, NCI, 2025)
